Source: patent publication US20230416457A1, “DUAL MODALITY UPS […] TUMOR ACIDOSIS IMAGING” (The Board of Regents of The University of Texas System, priority 2018, published 2023)

How the values were obtained:
[1] = system: orthotopic HN5 head and neck tumors; details: mouse, in vivo
Procedure: Female NOD-SCID mice (6-8 weeks) were purchased from UT Southwestern Medical Center Breeding Core. For orthotopic head and neck tumors, HN5 and FaDu (2×10^6 per mouse) were injected into the submental triangle area. One week after inoculation, animals with tumor size 20-100 mm^3 were used for imaging studies. Orthotopic murine 4T1 breast tumor model was established in BalB/C mice by injection of 4T1 (5×10^5 per mouse) cells into the mammary fat pads. GFP-transfected 73C murine glioblastoma tumor model was established by implanting 73C glioma cells intracranially in the left hemisphere of mice. Gliomas (2-4 mm in diameter) were formed within two weeks in mice.
For FDG experiments, mice were fasted for 12 h prior to PET imaging. Each mouse received 150 μCi of FDG in 150 μL of saline intravenously via tail vein injection. PET/CT images were acquired one hour post-injection for 15 mins. The mice were sedated on the imaging bed under 2% isoflurane for the duration of imaging. Immediately after the CT data acquisition that was performed at 80 kV and 500 μA with a focal spot of 58 μm, 15-min static PET scans were conducted. […] Reconstructed CT and PET images were fused and analyzed using Inveon Research Workplace (IRW) software. […] The target activity was quantitatively calculated as percentage injected dose per gram of tissue (% ID/g).

macrophages = details: cited from earlier work
[2] = system: LPS-induced tissue inflammation; design: species or system C57BL/6 immunocompetent mice; details: mouse, in vivo

## ^18F-fluorodeoxyglucose [FDG]
[1]
  contrast over noise ratio (CNR), FDG-PET: 1.7±0.6
macrophages
  increase of FDG uptake in macrophages by LPS stimulation: 2.5 fold
[2]
  anticipated PET signal in inflamed tissues: strong signals
